Data on one molecule can be found in patent US11464802B2, “3-substituted piperidine compounds for Cbl-b inhibition, and use thereof” (Nurix Therapeutics, Inc., priority 2019, dated 2022).

Structures are written as SMILES. Some results are limits rather than exact numbers.

In assay [1] the test system is primary human total T-cells. Nature of the assay: Primary human total T-cell activation: IL-2 secretion, Biological Example 2. The class given is cell-based. Particulars: 48 hours, fold change over baseline; for fold induction at 1 µM: inhibitor 1 μM.
The subject of assay [2] is primary human total T-cells. Nature of the assay: Primary human total T-cell activation: CD25 surface staining, Biological Example 2. The assay is classed as cell-based. Particulars: 48 hours, fold change over baseline; for fold induction at 1 µM: inhibitor 1 μM.
The mark [3] stands for this setting: anti-CD3/anti-CD28 co-stimulation, inhibitor 0.3 μM.

With `C[C@@H]1CN(Cc2cc3c(c(C(F)(F)F)c2)CN(c2cccc(C4(Cc5nncn5C)COC4)c2)C3=O)CCC1(F)F` [Compound 8, (R)-6-((4,4-difluoro-3-methylpiperidin-1-yl)methyl)-2-(3-(3-((4-methyl-4H-1,2,4-triazol-3-yl)methyl)oxetan-3-yl)phenyl)-4-(trifluoromethyl)isoindolin-1-one], the fold induction at 0.3 µM was greater than 15 in assay [1] (setting [3]) and 1.25 to 1.39 in assay [2] (setting [3]). Moreover, the fold induction at 1 µM in assay [1] (anti-CD3/anti-CD28 co-stimulation, read-out: IL-2 secretion CD3/CD28 1 μM) was greater than 15; in assay [1] (anti-CD3 alone, read-out: IL-2 secretion CD3 1 μM), 0.34 to 0.66; in assay [2] (anti-CD3/anti-CD28 co-stimulation, read-out: CD25 staining CD3/CD28 1 μM), 1.25 to 1.39; in assay [2] (anti-CD3 alone, read-out: CD25 staining CD3 1 μM), greater than 1.14. Besides, the fold induction at 3 µM in assay [1] (anti-CD3 alone, inhibitor 3 μM) was 0.34 to 0.66; in assay [2] (anti-CD3 alone, inhibitor 3 μM) it was greater than 1.14.
